Results taken from patent US11524073B2, “Anti-human ADRB3 monoclonal antibody and application thereof in disease diagnosis and treatment” (priority 2017, dated 2022).

Test system: Human glioma cells U87
Assay: Glioma treatment in nude mice
Type: in vivo
Experimental: Human glioma cells U87 were subcutaneously transplanted into the back of nude mice of 6 weeks old, which were used as the tumor model after tumor formation. In the experiment, the mice were divided into 4 groups with 8 mice in each group: normal control group, model control group, ADRB3 antibody treatment group, Gemcitabine and CD40 antibody combined treatment group. The ADRB3 antibody treatment group was intraperitoneally injected with 0.1 mg of ADRB3 antibody once every 5 days for a total of 6 weeks. The model control group was intraperitoneally injected with equivalent amount of normal saline.

## Nc1ccn([C@@H]2O[C@H](CO)[C@@H](O)C2(F)F)c(=O)n1 [Gemcitabine]
  metastatic lesion in the lung: some metastases are found
